Test results from patent publication EP0830136B1, “NEW CRY[…] […]” (priority 1995, dated 1996).
Entries after “also recorded” stand apart in the source; their conditions may differ. Where two headings read alike, the source gives them in different places.

Legend:
[1] = system: tumors implanted in mice; settings: for in vivo antitumor activity: statement in words; for T/C values / gross log kill values: summary over trials, partly worded 'mostly'
[2] = system: Panc 03
[3] = system: LoVo; experiment: In vitro cytotoxicity, LoVo cell line; type: cell-based, human
[4] = system: KB; experiment: In vitro cytotoxicity, KB cell line; type: cell-based, human; settings: read-out: RB IC50
[5] = system: human tumor cell lines KB and LoVo; experiment: In vitro cytotoxicity, KB and LoVo; settings: read-out: cytotoxicities IC50's
[6] = system: A-10 rat aortic smooth muscle cells; experiment: Immunofluorescence of cytoskeleton in A-10 cells; type: cell-based; settings: A-10 cells
Description: A-10 cells were grown to near-confluency on glass coverslips in BME/10% FBS. Compounds in PBS were added to the indicated final concentrations and cells were incubated for an additional 24 hours. For the staining of microtubules and intermediate filaments, the cells were fixed with cold methanol and incubated with PBS containing 10% calf serum to block nonspecific binding sites. Cells were then incubated at 37°C for 60 min with either monoclonal anti-β-tubulin or with monoclonal anti-vimentin at dilutions recommended by the manufacturer. Bound primary antibodies were subsequently visualized by a 45-minute incubation with fluorescein-conjugated rabbit antimouse IgG. The coverslips were mounted on microscope slides and the fluorescence patterns were examined and photographed using a Zeiss Photomicroscope ill equipped with epifluorescence optics for fluorescein. […] PBS containing 100nM TRITC-phalloidin was then added and the mixture was allowed to incubate for 45 min at 37° C. The cells were washed rapidly three times with PBS before the coverslips were mounted and immediately photographed as described above.

[7] = system: Colon 51; settings: SC Tumor Colon 51
[8] = system: Colon 38
[9] = system: MX-1 Human Breast; settings: Exp # 1806; SC Tumor MX-1 Human Breast; 8 Inj. IV; 12 mg/kg Total Dose
Description: (§1) Gross log kill is defined as T-C/3.2 Td where T is the median time in days for the tumors of the treated group to reach 750mg, C is the median time in days for the tumors of the control group to reach 750mg, and Td is the tumor volume doubling time (T.H. Corbett et al., Cytotoxic Anticancer Drugs: Models and Concepts for Drug Discovery and Development, pp 35-87; Kluwer: Norwell, 1992).

[10] = Methanolysis (solvolysis) of the C-D ester bond; type: physicochemical; settings: methanol used in the isolation scheme
[11] = system: M17/0 (Adr. Sens.); settings: Exp # 1833; SC Tumor M17/0 (Adr. Sens.); 5 Inj. IV; 5.4 mg/kg Total Dose
Description: as §1

[12] = system: Human Sm Cell L. DMS273 SCID; settings: Exp # 1596; SC Tumor Human Sm Cell L. DMS273 SCID; 6 Inj. IV; 7.3 mg/kg Total Dose
Description: as §1

[13] = system: Mam 16/C; settings: SC Tumor Mam 16/C
[14] = physchem; settings: aqueous base, pH 11
[15] = system: H125 Human Adenosq-lung; settings: Exp # 1823; SC Tumor H125 Human Adenosq-lung; 8 Inj. IV; 14.4 mg/kg Total Dose
Description: as §1

[16] = system: Mam 16/Taxol; settings: Exp # 1733; SC Tumor Mam 16/Taxol; 5 Inj. IV; 16.5 mg/kg Total Dose
Description: as §1

[17] = system: LNCaP Human Prostate; settings: Exp # 1841; SC Tumor LNCaP Human Prostate; 6 Inj. IV; 6.5 mg/kg Total Dose
Description: as §1

[18] = system: Colon 26; experiment: In vivo activity, Colon 26 experiment; set-up: species or system mice
Description: as §1

[19] = system: SKVLB1 cells; experiment: cells; type: cell-based; settings: Homo sapiens, SKVLB1, 48 h, read-out: SKVLB1 IC50 (nM)
Description: The Jurkat T cell leukemia line and A-10 rat aortic smooth muscle cells were obtained from the American Type Culture Collection and were cultured in BME containing 10% FBS and 50µg/mL gentamycin sulfate. […] Both cell lines were maintained in BME containing 10% FBS and 50µg/mL gentamycin sulfate.
Cell proliferation assays were performed as described by Skehan et al.^11 For Jurkat cells, cultures were treated with the indicated drugs as described in Skehan^11 and total cell numbers were determined by counting the cells in a hemacytometer. The percentage of cells in mitosis was determined by staining with 0.4% Giemsa in PBS followed by three rapid washes with PBS. At least 1000 cells per treatment were scored for the presence of mitotic figures and the mitotic index was calculated as the ratio of cells with mitotic figures to the total number of cells counted.

[20] = system: SKOV3 cells; experiment: Cell proliferation assay (SRB staining), SKOV3; type: cell-based, Human; settings: 24 hours with IC50 doses
[21] = Exp # 1843, SC Tumor P03, 4 Inj. IV, 28/5 mg/kg TD
[22] = 24 hours, 2µM cytochalasin B, 100nM vinblastine or 10nM cryptophycin compounds
[23] = Exp # 1843, SC Tumor P03, 7 Inj. IV, 23 mg/kg TD
[24] = Exp # 1636, 7 Inj. IV, 28.1 mg/kg Total Dose
[25] = Exp # 1560, SC Tumor Colon 38, 8 Inj. IV, 10.3 mg/kg Total Dose
[26] = Exp # 1720, 5 Inj. IV, 13.2 mg/kg Total Dose
[27] = Exp # 1878, SC Tumor P03, 9 Inj. IV, 82 mg/kg TD
[28] = Exp # 1813, SC Tumor P03, 9 Inj. IV, 27 mg/kg TD
[29] = Exp # 1900, 9 Inj. IV, 67.5 mg/kg TD
[30] = Exp # 1887 B, SC Tumor C38, 6 Inj. IV, 30 mg/kg TD
[31] = Exp # 1825, SC Tumor P03, 11 Inj. IV, 106 mg/kg TD
[32] = Exp # 1885, 7 Inj. IV, 21.3 mg/kg TD

COc1ccc(C[C@H]2NC(=O)/C=C/C[C@@H]([C@H](C)[C@@H](O)[C@@H](O)c3ccccc3)OC(=O)[C@H](CC(C)C)OC(=O)[C@H](C)CNC2=O)cc1Cl [Cryptophycin 15]
in vivo antitumor activity [1]: antitumor activity is greatly diminished

COc1ccc(C[C@H]2NC(=O)/C=C/C[C@@H]([C@H](C)[C@@H](O)[C@@H](Br)c3ccccc3)OC(=O)[C@H](CC(C)C)OC(=O)[C@H](C)CNC2=O)cc1Cl [Cryptophycin 25]
T/C and gross log kill values, comparison in words ([1]; mouse, in vivo): comparable with those for Cryptophycin 1

COc1ccc(C[C@H]2NC(=O)/C=C/C[C@@H]([C@H](C)/C=C/c3ccccc3)OC(=O)[C@H](CC(C)C)OC(=O)[C@H](C)CNC2=O)cc1Cl [Cryptophycin 3]
% Body Wt. Loss at Nadir [2, 21]: -9% | Cures [2, 21]: 0/5 | Log Kill [2, 21]: <1 | T/C [2, 21]: 54% | in vivo antitumor activity [1]: antitumor activity is greatly diminished | IC50 [3]: 1.9 to 5.8 nM | IC50 [4]: 3.1 to 4.6 nM | IC50 [5]: 3.5 to 5.8 nM

C=C1[C@@H](C)[C@H]2[C@H](Cc3ccccc3)NC(=O)[C@]23OC(=O)/C=C/[C@H](O)CCC[C@@H](C)C/C=C/[C@H]3[C@@H]1O [Cytochalasin B, cytochalasin B]
effect on microfilaments [6, 22]: complete depolymerization of microfilaments | effect on microtubules [6, 22]: did not affect the distribution of either mierotubules or intermediate filaments | effect on vimentin intermediate filaments [6, 22]: did not affect the distribution of either mierotubules or intermediate filaments

COc1ccc(CC2NC(=O)CCCC(C(C)C3OC3c3ccccc3)OC(=O)C(CC(C)C)OC(=O)C(C)CNC2=O)cc1Cl (stereo not shown) [Cryptophycin 35]
% Body Wt. Loss at Nadir [2, 23]: -2% | Cures [2, 23]: 0/5 | Log Kill [2, 23]: 1.3 | T/C [2, 23]: 11%

COc1ccc(C[C@H]2NC(=O)/C=C/C[C@@H]([C@H](C)[C@H]3O[C@@H]3c3ccccc3)OC(=O)[C@H](CC(C)C)OC(=O)[C@H](C)CNC2=O)cc1Cl [Cryptophycin 1]
% Body Wt. Loss at Nadir [7, 24]: -11% | Cures [7, 24]: 0/5 | Log Kill [7, 24]: 1.3 | T/C [7, 24]: 7% | % Body Wt. Loss at Nadir [8, 25]: Gain | Cures [8, 25]: 0/5 | Log Kill [8, 25]: 1.5 | T/C [8, 25]: 6% | % Body Wt. Loss at Nadir [9]: -3% | Cures [9]: 0/5 | Log Kill [9]: 2.0 | T/C [9]: 3% | methanolysis of the C-D ester bond [10]: considerable methanolysis | toxicity in animals ([1]; compared with Cryptophycin 8): appreciable toxicity | T/C values [1]: > 0% | gross log kill values [1]: < 2.0 | IC50 [3]: 0.0104 nM | % Body Wt. Loss at Nadir [11]: -10% | Cures [11]: 0/5 | Log Kill [11]: <1 | T/C [11]: 23% | % Body Wt. Loss at Nadir [12]: 0% | Cures [12]: 0/5 | Log Kill [12]: <1 | T/C [12]: 27% | IC50 [4]: 0.0092 nM | % Body Wt. Loss at Nadir [13, 26]: -1% | Cures [13, 26]: 0/5 | Log Kill [13, 26]: 1.4 | T/C [13, 26]: 5% | half-life [14]: 49.8 min | % Body Wt. Loss at Nadir [15]: -15% | Cures [15]: 0/5 | Log Kill [15]: 1.1 | T/C [15]: 9% | dead [15]: 1/5 | % Body Wt. Loss at Nadir [16]: 0% | Cures [16]: 0/5 | Log Kill [16]: 1.8 | T/C [16]: 2% | % Body Wt. Loss at Nadir [17]: -6% | Cures [17]: 0/5 | Log Kill [17]: <1 | T/C [17]: 26% | IC50 [5]: 0.009 to 0.029 nM

CC(C)C[C@@H]1OC(=O)[C@H](C)CNC(=O)[C@@H](Cc2ccc(O)c(Cl)c2)NC(=O)/C=C/C[C@@H]([C@H](C)[C@H]2O[C@@H]2c2ccccc2)OC1=O [Cryptophycin 16]
% Body Wt. Loss at Nadir [2, 27]: -1% | Cures [2, 27]: 0/5 | Log Kill [2, 27]: None | T/C [2, 27]: 89%

COc1ccc(C[C@H]2NC(=O)/C=C/C[C@@H]([C@H](C)[C@H]3O[C@@H]3c3ccccc3)OC(=O)[C@H](CC(C)C)OC(=O)CCNC2=O)cc1Cl [Cryptophycin 21]
methanolysis of the C-D ester bond [10]: considerable methanolysis; also recorded: much more susceptible to methanolysis than Cryptophycin 1 | % Body Wt. Loss at Nadir [2, 28]: -11% | Cures [2, 28]: 0/5 | Log Kill [2, 28]: None | T/C [2, 28]: 61% | dead [2, 28]: 1/5 | in vivo antitumor activity [1]: inactive | half-life [14]: 15 min

COc1ccc(C[C@H]2NC(=O)/C=C/C[C@@H]([C@H](C)/C=C/c3ccccc3)OC(=O)[C@H](CC(C)C)OC(=O)C(C)(C)CNC2=O)cc1Cl [Cryptophycin 51]
IC50 [5]: 3.5 to 5.8 nM

COc1ccc(C[C@H]2NC(=O)/C=C/C[C@@H]([C@H](C)[C@@H](O)[C@@H](Cl)c3ccccc3)OC(=O)[C@H](CC(C)C)OC(=O)[C@H](C)CNC2=O)cc1Cl [Cryptophycin 8]
% Body Wt. Loss at Nadir [7, 29]: -1% | Cures [7, 29]: 0/5 | Log Kill [7, 29]: 1.8 | T/C [7, 29]: 7% | % Body Wt. Loss at Nadir [8, 30]: -2% | Cures [8, 30]: 1/5 | Log Kill [8, 30]: 2.8 | T/C [8, 30]: 0% | % Body Wt. Loss at Nadir [2, 31]: -6% | Cures [2, 31]: 0/5 | T/C [2, 31]: 4% | Log Kill ([2]; mouse, in vivo, 106 mg/kg): 4.6 | T/C values [1]: 0% | gross log kill values [1]: > 2.8 | IC50 [3]: 0.0091 nM | IC50 [4]: 0.019 nM | % Body Wt. Loss at Nadir [13, 32]: -4.5% | Cures [13, 32]: 0/5 | Log Kill [13, 32]: 2.5 | T/C [13, 32]: 6% | IC50 [5]: 0.009 to 0.019 nM

COc1ccc(C[C@H]2NC(=O)/C=C/C[C@@H]([C@H](C)[C@@H](O)[C@@H](Cl)c3ccccc3)OC(=O)[C@H](CC(C)C)OC(=O)C(C)(C)CNC2=O)cc1Cl [Cryptophycin 55]
total dosage required in vivo relative to comparator ([1]; mouse, in vivo): three times the total dosage compared with Cryptophycin 8 | in vivo antitumor activity [1]: active in vivo | gross log kill value [18]: 1.2 | IC50 [5]: 0.033 to 0.047 nM

CC(=O)O[C@H]1C(=O)[C@@]2(C)[C@H]([C@H](OC(=O)c3ccccc3)[C@]3(O)C[C@H](OC(=O)[C@H](O)[C@@H](NC(=O)c4ccccc4)c4ccccc4)C(C)=C1C3(C)C)[C@]1(OC(C)=O)CO[C@@H]1C[C@@H]2O [taxol]
microtubule organization in taxol-treated cells ([6]; 10µM taxol): extensively bundled | IC50 [19]: 8000 nM | increase in cell number during treatment [20]: 25%
